Measurements: US20100028406A1, “TOPICAL DRUG DELIVERY BY IONTOPHORESIS” (UNIVERSITE DE GENEVE, priority 2005, published 2010)
≈ marks a conversion by molar mass, not a printed value. Read-outs that look alike come from different tables or passages of the source.

What was measured:
[1] = iontophoresis, rabbit skin; cited from earlier work
[2] = Cutaneous conversion of VCV to ACV in contact with skin (SC and dermis); type: in vitro ADME, porcine
Experimental: (§1) The aqueous stability of VCV in the donor formulations was investigated by periodic sampling of solutions (2 and 10 mM in water with 15 mM acetaminophen) over a period of 44 hours. In addition, the impact of an electrical current (0.34 mA) on this stability was examined over the same period. The chemical hydrolysis of VCV was also investigated in the presence of PBS pH 7.4. The cutaneous conversion of VCV to ACV via hydrolytic cleavage of the ester bond was verified as follows. Cells were assembled as for an iontophoresis experiment. A 100 μM solution of VCV in PBS pH 7.4 was placed in all the cell compartments and left in contact with the skin (SC and dermis) for 4 hours. The compartments were assayed for ACV and VCV immediately afterwards.

[3] = calculated (Denny, 2003); cited from earlier work
[4] = pKa and ionization state of ACV and VCV; type: physicochemical; conditions: for ionization state in the donor phase: unbuffered formulations, ACV pH 6.3, VCV pH 5.7
[5] = Iontophoresis across porcine skin in vitro, 3-compartment cells, acetaminophen as electroosmosis marker
Experimental: Porcine ear skin, which is a well-accepted model for human skin (Dick and Scott, 1992; Sekkat et al., 2002), was used in these studies. Porcine ears were obtained from a local abattoir (Société d'Exploitation d'Abbatage, Annecy, France) a few hours after the sacrifice of the animals. The excised skin was then dermatomed (˜750 μm) on the same day and stored at −20° C. for a maximum of two months.
Iontophoresis was performed using vertical 3-compartment cells (FIG. 2). The skin was placed between two half-cells: the upper half, in contact with the SC, comprised two electrode/donor compartments, while the lower receiver compartment was in contact with the dermis. A flow-through system circulated phosphate-buffered normal saline (PBS: 16.8 mM Na2HPO4, 1.4 mM KH2PO4 and 136.9 mM NaCl; pH 7.4) through the receiver chamber (volume 4.7 mL) at a rate of 3 mL/h. Ag/AgCl electrodes were used throughout the study. The skin was allowed to equilibrate for one hour prior to the iontophoresis experiment. In order to reduce competition from Na^+ ions present in the donor, and thus to increase the permeation of VCV, most experiments were performed using a salt bridge assembly. This strategy consists of physically separating the anodal chamber (Ag electrode immersed in PBS pH 7.4) from the donor compartment (drug solution in contact with the SC) and employing a salt bridge (prepared by filling a 12 cm tubing with a warm aqueous solution of 3% agarose and 0.1 M NaCl and then allowed to cool) to electrically connect the two chambers. […] For control experiments without the salt bridge, the anodal compartment contained 1 mL of 10 mM VCV.HCl in PBS pH 7.4. The cathodal compartment contained PBS pH 7.4 in all the experiments. A constant current of 0.34 mA was applied for 7 hours (equivalent to a current density of 0.5 mA/cm^2).
Acetaminophen (ACE, 15 mM) was included in the donor solution as a marker for electroosmotic flow. Being a small, polar and neutral molecule, it is transported mainly by convective solvent flow during iontophoresis. Therefore, its flux can be used to determine the contribution of electroosmosis to the total iontophoretic flux,
where JEO represents the contribution of electroosmosis (EO) to delivery, vA→C is the convective solvent flow from the anode to cathode, and CD is the donor concentration of the drug.
The experiments were performed in sextuplicate, except for passive delivery (n=3), using the skin of as many different animals as possible. Samples were collected hourly and analyzed by high pressure liquid chromatography (HPLC). The HPLC system consisted of a 600 E Controller pump, an Autosampler Injector 717-plus, an In Line Degasser, and a UV 2487 dual λ Detector (Waters, Saint-Quentin Yvelines, France). The separation was performed on a Nucleosil® 100-5 C18 Nautilus column (L: 125 mm; ID: 4.6 mm; Macherey-Nagel, Hoerdt, France) with a 99:1 mixture of 0.1% trifluoroacetic acid (TFA) in water (pH 2.5): MeCN. The flow rate was 1 mL/min, the temperature was adjusted to 30° C., and 50 μL of sample were injected.
The iontophoretic flux (JTOT) of a charged species is considered to be the sum of two separate transport processes—electromigration (JEM) and electroosmosis (JEO), assuming negligible passive skin permeability (Sage Jr., 1995):
JTOT,VCV=JEM,VCV+JEO,VCV (equation 2)
Briefly, electromigration occurs as a result of increased molecular transport in the presence of an applied electric field, whereas electroosmosis refers to transport mediated by the bulk solvent flow across the skin (in the anode-to-cathode direction) due to the skin's permselectivity for cations under physiological conditions.

[6] = Aqueous stability of VCV in donor formulations and in PBS pH 7.4; type: physicochemical
Experimental: as §1

[7] = guinea pig skin, 5% w/w (220 mM) ACV ointment, passive; cited from earlier work
[8] = topical 220 mM ACV formulation, rabbits in vivo; cited from earlier work
[9] = cited from earlier work
[10] = pH 7.4, 25°; cited from earlier work
[11] = cited from earlier work; remark: listed apart in the source
[12] = human skin, 5% w/w (220 mM) ACV ointment, passive; cited from earlier work

CC12CCC3C(CC=C4CC(OC(=O)CN)CCC43C)C1CCC2=O (centres unmarked) [glycyl ester of DHEA]
increase in permeation compared to the parent DHEA [1]: 3 fold

CC(C)[C@H](N)C(=O)OCCOCn1cnc2c(=O)[nH]c(N)nc21 [VCV, valaciclovir]
enzymatic conversion after contact with the SC ([2]; 100 μM in PBS pH 7.4, 4 hours): not observed
hydrolysis after contact with the dermis ([2]; 100 μM in PBS pH 7.4, 4 hours, receiver (dermal) compartment): completely hydrolyzed to ACV
calculated log P and log D values [3]: −0.78
protonated fraction ([4]; physiological pH): ~50%
ionization state in the donor phase [4]: fully protonated
mechanism of iontophoretic transport across the skin [5]: almost entirely to electromigration (EM)
average flux Jt=0-3 h ([5]; pig, 2 mM): 385±158 nmol/cm^2/h
average flux Jt=0-3 h ([5]; pig, 10 mM): 479±258 nmol/cm^2/h
flux Jt=0-7 h ([5]; pig, 10 mM): 510±219 nmol/cm^2/h
amount reaching the receptor as fraction of the applied dose ([5]; pig, 4 h, 2 mM): 50%
EM contribution to the total flux ([5]; pig, 7 h, 10 mM, pH 7.4): 73%
transport number ([5]; pig, 7 h, pH 7.4): ~0.03
prodrug converted to ACV ([6]; PBS pH 7.4, over 7 hrs): ~12%
VCV converted into ACV ([6]; unbuffered aqueous solutions (2 and 10 mM) with acetaminophen, 44 hours, absence of a current): Less than 1%
extent of degradation of VCV ([6]; unbuffered aqueous solutions, presence of a current (0.34 mA), over 7 hours): ~1%

Nc1nc2c(ncn2COCCO)c(=O)[nH]1 [ACV, acyclovir]
in vitro flux [7]: 0.21 nmol/cm^2/h
stability in contact with the skin, donor and receptor chambers ([2]; 100 μM, 4 hours, SC and dermis): stable
dermal concentrations (microdialysis) [8]: below the limit of detection
ionized fraction ([9]; pH 3.0): 20%
ionized fraction ([9]; pH 7.4): 2%
calculated log P and log D values [3]: −1.76
aqueous solubility [10]: 1300 µg/mL (≈ 5.77 mM)
donor concentration-normalized flux ([11]; human skin, physiological pH, iontophoresis): 0.0027 cm/h
epidermal concentrations ([11]; iontophoretic administration across human skin): ~80 µg/mL
in vitro flux [12]: 0.24 nmol/cm^2/h
ionization state in the donor phase [4]: effectively uncharged
donor concentration-normalized flux ([5]; pig, 7 h, 2 mM, pH 6.3): 0.0024 cm/h
mechanism of iontophoretic transport across the skin ([5]; unbuffered formulations, ACV pH 6.3, VCV pH 5.7): entirely by EO
